Consider one compound from patent US20160061919A1, “IMAGING OF CREATINE KINASE ENZYME EXPRESSION IN CANCEROUS TISSUES” (Sidra Medical and Research Center, priority 2014, published 2016).

Structures are written as SMILES.

For assay [1], the system named is creatine kinase (CK) expression in cancer cells. The experiment in a line: CEST imaging of cancer cells cultured with PCr. Type of assay: cell-based. Particulars: cancer cell line cultured with PCr for 1 hour; FIG. 2. The text has this:
(§1) In certain embodiments, the radio frequency (RF) pulse can be provided at different frequency offsets. In certain embodiments, to detect the conversion of phosphocreatine to creatine, an RF pulse was applied at a frequency offset of about 1.8 ppm for a period of about 1 to about 3 seconds.
The creatine kinase (CK) expression in cancer cells cleaves the PCr into creatine (Cr), and can be responsible for the increase in CEST contrast from creatine amine protons.

Assay [2] has as its system CK enzyme expressed in the tumor. The assay is described as follows: in vivo imaging of creatine kinase expression by monitoring conversion of PCr to Cr through CEST. Particulars: 60 minutes following tail vein injection of PCr, versus base line CEST map, FIG. 3. As to the method:
as §1
“b” is the base line CEST map from the same slice. “c” is a CEST map of the same slice at 60 minutes following tail vein injection of PCr.

As for `CN(CC(=O)O)C(=N)NP(=O)(O)O` [PCr, phosphocreatine], the “elevation of the CEST contrast over cancer cells without PCr” value in assay [1] is given as “about 16%”. The “increase in CEST contrast” value in assay [2] is recorded as “about 11%”.
